Here are results for one compound from patent publication US20190203409A1, “ANTIBACTERIAL REGENERATED CELLULOSIC FIBERS AND PROCESS OF PREPARATION THEREOF” (GRASIM INDUSTRIES LIMITED, priority 2016, published 2019).

For this assay, the system named is S. Aureus. The assay is described as follows: AATCC 147-2013 antibacterial test. It counts as cell-based. The settings on record: 0.5% concentration to weight of cellulose. As for the experimental part: An antibacterial agent is used in Standard VSF or Modal or Lyocell manufacturing process to improve antibacterial performance of fiber. A small amount of chemical DDAC (i.e. 0.05-1% on weight of cellulose fiber) is infused by the way of: pouring or spraying or soaking or coating or padding or dipping and the like on the fiber during fiber manufacturing process and then fibers were dried and finally packed into the bales. The resultant fiber was then evaluated for antibacterial performance in external biological laboratory as per standard test methods.

Consider `Oc1cc(Cl)ccc1Oc1ccc(Cl)cc1Cl` [Triclosan], for which the “antibacterial activity (in words)” value is listed as “did not demonstrate any antibacterial activity”.
